In the METLIN SMRT retention time set (Domingo-Almenara et al. 2019):

Assay: gradient 5% acetonitrile 3 min, to 50% in 2 min, to 85% in 15 min, held 3 min, 100 µL/min
Details: column: Zorbax Extend-C18 2.1 x 50 mm; eluents: water / acetonitrile, 0.1% formic acid
Method in brief: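 Retention time was recorded from adduct peaks, which were picked computationally and each inspected manually. Pure standards ran in mixtures of ~100 molecules on HPLC coupled to a quadrupole time-of-flight mass spectrometer, in positive and negative ionization mode, through a Zorbax Extend-C18 column (2.1 × 50 mm, 1.8 μm) at 100 μL/min. Eluents were water and acetonitrile, each with 0.1% formic acid.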

With COc1ccc(-c2cc(N3CCC(NC(=O)C4(c5ccccc5)CC4)CC3)n[nH]2)cc1 the RP-LC retention time was 817 s.
CCn1c(=O)sc2cc(S(=O)(=O)N3CCC(C(=O)Nc4ccccn4)CC3)ccc21 gave an RP-LC retention time of 751 s.
Cc1noc(-c2cccc(OC3CN(C(=O)NCc4ccccc4)C3)c2)n1 showed an RP-LC retention time of 830 s.
For CCNC(=O)Cc1nnc(-c2ccc(C)cc2)o1, the RP-LC retention time was 664 s.
CCn1cc2c3c(cccc31)CN(C(=O)Nc1cc(C)cc(C)c1)CC2 gave an RP-LC retention time of 1070 s.
Molecule Cc1ccc(C2=NC3(CCN(C(=O)c4ccsc4)CC3)ON2)cc1 has an RP-LC retention time of 737 s.
For CC#CCn1c(N2CCC[C@@H](N)C2)nc2c1c(=O)n(Cc1nc(C)c3ccccc3n1)c(=O)n2C, the RP-LC retention time was 670 s.
For COC(=O)c1cc(OCC(=O)Nc2cccc(OC)c2)c2ccccc2n1, the RP-LC retention time was 779 s.
In the case of Cc1cccc(-n2c(=O)c3c(cc(C)n3C)n(CC(=O)Nc3ccc(C(F)(F)F)cc3)c2=O)c1, the RP-LC retention time is reported as 968 s.
With Cc1nc(-c2csc(S(=O)(=O)N3CCCC(C(=O)N4CCc5ccccc54)C3)c2)no1 (centres undefined) the RP-LC retention time was 1020 s.
For Cc1ccccc1-c1noc(Cn2c(=O)n(CC(C)C)c(=O)c3ccccc32)n1, the RP-LC retention time was 1220 s.
CC(=O)Nc1ccc2c(c1)CN(C(=O)c1ccccc1Cl)C(C(=O)N1CCCC1)C2 (centres undefined) showed an RP-LC retention time of 657 s.
COc1cc(NC(=O)CCSc2ccccc2)c2ncccc2c1 showed an RP-LC retention time of 1060 s.
Molecule O=C(c1ccsc1)N1CCCn2cc(-c3ccccc3F)nc21 has an RP-LC retention time of 673 s.
In the case of O=C(NCc1csc(-c2cccs2)n1)C1CCN(C(=O)CCc2ccccc2)CC1, the RP-LC retention time is reported as 805 s.
CC(=O)N(Cc1nn(C)c2c1CN(Cc1cn[nH]c1-c1cccs1)CC2)c1ccccc1 gave an RP-LC retention time of 589 s.
For c1cc(-c2nc(-c3ccc4c(c3)ncn4CCN3CCCCC3)no2)cs1, the RP-LC retention time was 609 s.
Cc1ccc(C)c(NC(=O)CSc2ccc(N3CCCC(C(=O)NC4CC4)C3)nn2)c1 (centres undefined) gave an RP-LC retention time of 681 s.
Work on O=C(Nc1ccc2c(c1)OCO2)C1CCCN(c2ncc(-c3ccccc3)cn2)C1 (centres undefined) yielded an RP-LC retention time of 1040 s.
With O=C(c1ccc(CS(=O)c2ccc(Cl)cc2)o1)N1CCN(c2ccccn2)CC1 (centres undefined) the RP-LC retention time was 582 s.
Molecule COc1ccc(-c2cc(C(=O)N3CCCC3)c(C)n2C)cc1 has an RP-LC retention time of 589 s.
C=CCN1C(=O)COc2ccc(-c3nc(NC(=O)c4ccco4)sc3C)cc21 gave an RP-LC retention time of 903 s.
With COc1ccc(OC)c(NC(=O)N2CCC(n3c(C)nc4cccnc43)CC2)c1 the RP-LC retention time was 631 s.
Molecule COCc1nc(C2CCCN(C(=O)NC3CCCC3)C2)no1 (centres undefined) has an RP-LC retention time of 743 s.
With CCOC(=O)c1noc2nc(C)nc(NCCCN3CCN(c4cc(C)ccc4C)CC3)c12 the RP-LC retention time was 774 s.
With CC(NC(=O)CC1CCN(S(=O)(=O)c2ccccc2)CC1)c1ccc2c(c1)OCCO2 (centres undefined) the RP-LC retention time was 846 s.
Work on COc1ccc(S(=O)(=O)Nc2ccc3nc(-c4ccc(F)cc4)cc(OC)c3c2)cc1 yielded an RP-LC retention time of 774 s.
Molecule CCc1ccccc1NC(=O)N1CCC(n2cnc3ccccc3c2=O)CC1 has an RP-LC retention time of 744 s.
In the case of CSc1ccc(NC(=O)N2CCN(c3cnn4c(C5CC5)nnc4c3)CC2)cc1, the RP-LC retention time is reported as 668 s.
In the case of CCc1noc(NC(C)=O)c1-c1ccc(OC)c(S(=O)(=O)Nc2ccc(C)c(F)c2)c1, the RP-LC retention time is reported as 836 s.
For N#Cc1cccc(C(=O)NC2CCN(c3cc(-c4ccc(Cl)cc4)[nH]n3)C2)c1 (centres undefined), the RP-LC retention time was 728 s.
Molecule Cc1oc2ccn(Cc3ccc(F)cc3)c(=O)c2c1C(=O)N1CCCCC1 has an RP-LC retention time of 834 s.
Work on O=C(NC1CCCCC1)C1CCN(c2cnn(Cc3ccccc3)c(=O)c2)CC1 yielded an RP-LC retention time of 793 s.
In the case of Cc1nc(C)c(-c2ccc(SCC(=O)Nc3ccc4c(c3)OCCO4)nn2)s1, the RP-LC retention time is reported as 690 s.
Work on CC(C)N1CCN(C(=O)C2CC(=O)N(c3ccc4c(c3)CCN4C(=O)C3CC3)C2)CC1 (centres undefined) yielded an RP-LC retention time of 579 s.
With COc1ccc(NC(=O)N2CCC3(CC2)NC(=O)c2ccccc2O3)c(OC)c1 the RP-LC retention time was 728 s.
CCCn1cc(CCNC(=O)Nc2cccc(C)c2)c2cccnc21 gave an RP-LC retention time of 782 s.
For Cc1cc(NC(=O)c2ccccc2C(F)(F)F)n(-c2nc(-c3cccs3)cs2)n1, the RP-LC retention time was 1250 s.
Molecule Cc1ccccc1NC(=O)NC1CCN(C(=O)C2CC2)C1 (centres undefined) has an RP-LC retention time of 660 s.
In the case of Fc1cccc(-c2nc(-c3ccc(-n4cccn4)nc3)no2)c1, the RP-LC retention time is reported as 1220 s.
Work on Cc1ccc(-c2nc(CCN(C)C(=O)Nc3cc(F)ccc3F)no2)cc1 yielded an RP-LC retention time of 994 s.
In the case of COc1ccc(-c2nc3ncccn3c2NCc2ccccc2)cc1OC, the RP-LC retention time is reported as 682 s.
With COc1cccc2c1OC1(C)CC2C(S(=O)(=O)c2ccc(Cl)cc2)C(=O)N1C (centres undefined) the RP-LC retention time was 938 s.
With CCOc1ccc(-c2[nH]ncc2CNS(=O)(=O)Cc2ccc(C)c(C)c2)cc1 the RP-LC retention time was 896 s.
Molecule CCn1cnc(S(=O)(=O)N2CCC(C(=O)NCCc3ccccc3)CC2)c1 has an RP-LC retention time of 697 s.
For Cc1cccc(NS(=O)(=O)c2cc(-c3[nH]ncc3C(=O)N(C)C)oc2C)c1, the RP-LC retention time was 678 s.
Work on O=C(c1ccsc1)N1CCN(c2cc(-c3cccnc3)[nH]n2)CC1 yielded an RP-LC retention time of 584 s.
COc1ccc(OC)c(CNC(=O)c2cn3c(n2)CCCC3)c1 showed an RP-LC retention time of 587 s.
For Cc1cnc(C2CCOCC2)n1C1CCCN(S(=O)(=O)Cc2ccccc2)C1 (centres undefined), the RP-LC retention time was 646 s.
Molecule CCCN(CCC)C(=O)Cn1c(CN(C)C(C)=O)nc2ccccc21 has an RP-LC retention time of 630 s.
For O=C(N1CCN(c2cc(-c3ccc(Cl)cc3)[nH]n2)CC1)C1(c2ccccc2)CC1, the RP-LC retention time was 924 s.
Molecule CN1CCN(CCNC(=O)C2c3ccccc3C(=O)N(C3CCCC3)C2c2cccs2)CC1 (centres undefined) has an RP-LC retention time of 633 s.
For COc1ccc(C)cc1NC(=O)CN1CCN(Cc2ccccc2)C(=O)C1=O, the RP-LC retention time was 684 s.
Molecule Cc1cc(C)cc(Nc2c(-c3ccc(C(=O)O)cc3)nc3cnccn23)c1 has an RP-LC retention time of 779 s.
For COc1cccc(-c2nnc(Cc3nc(-c4ccc(Br)cc4)no3)o2)c1, the RP-LC retention time was 1100 s.
Molecule COc1ccc(C(=O)N2CCn3c(C)nnc3C2)cc1F has an RP-LC retention time of 593 s.
COc1ccccc1-c1nc(Cc2noc(-c3ccc(F)cc3)n2)c(C)o1 showed an RP-LC retention time of 1040 s.
O=C(c1ccc(C(F)(F)F)s1)N1CCN(c2nc(CN3CCCCC3)cs2)CC1 showed an RP-LC retention time of 703 s.
For COc1cccc(OCC(=O)N2CC(=O)Nc3ccccc32)c1, the RP-LC retention time was 869 s.
With CCCNc1cc(N2CCC(CCC(=O)N3CCN(c4ncccn4)CC3)CC2)ncn1 the RP-LC retention time was 632 s.
Work on COc1cccc2c1OC1(CCN(C(C)=O)CC1)N1N=C(c3cccs3)CC21 (centres undefined) yielded an RP-LC retention time of 835 s.
With COc1ccc(-c2nnc(-c3cccnc3NCc3ccc(N(C)C)cc3)o2)cc1 the RP-LC retention time was 873 s.
Molecule CCOC(=O)c1cnc2nc(C)ccc2c1Nc1ccc(F)cc1 has an RP-LC retention time of 672 s.
COc1ccc(NC(=O)c2cc(C(C)C)n(C3CCS(=O)(=O)C3)n2)cc1 (centres undefined) showed an RP-LC retention time of 831 s.
CCCCN(CC)c1nc(-c2ccc([N+](=O)[O-])cc2)nc2ccccc12 gave an RP-LC retention time of 975 s.
In the case of CCc1cccc(NC(=O)Nc2c(-c3ccncc3)nc3ccccn23)c1, the RP-LC retention time is reported as 630 s.
CCOc1nc2ccccc2nc1N1CCCC(C(=O)Nc2ccc(Cl)cc2C)C1 (centres undefined) gave an RP-LC retention time of 1300 s.
In the case of O=C(C1=NN(Cc2cc(F)cc(F)c2)c2ccccc2S1(=O)=O)N1CCCCC1, the RP-LC retention time is reported as 956 s.
In the case of Cc1cc(N2CCN(C(=O)Nc3ccccc3C)CC2)nc(N2CCCC2)n1, the RP-LC retention time is reported as 651 s.
Cn1nc(N2CCC(NC(=O)CCn3cnnn3)CC2)ccc1=O showed an RP-LC retention time of 566 s.
In the case of COCc1cn(C2CN(C(=O)COc3ccccc3)C2)nn1, the RP-LC retention time is reported as 642 s.
Molecule COc1cccc(C(=O)NCCN2CCN(c3ccc(Cl)cc3)CC2)c1 has an RP-LC retention time of 745 s.
COc1ccc(OC)c(NC(=O)N2CCCC2c2nc(-c3ccccc3OC)no2)c1 (centres undefined) gave an RP-LC retention time of 906 s.
For O=S(=O)(c1cccc(-c2nnc(-c3ccc(F)cc3)o2)c1)N1CCCCCC1, the RP-LC retention time was 1110 s.
COCCn1cc(CCNC(=O)Nc2ccc(C)c(Cl)c2)c2cccnc21 showed an RP-LC retention time of 812 s.
With CCSc1ccccc1C(=O)Nc1cc(C(C)(C)C)nn1CCO the RP-LC retention time was 781 s.
CCOC(=O)C1=C(CN2CCC(C)CC2)NC(=O)NC1c1ccc(C)cc1 (centres undefined) gave an RP-LC retention time of 656 s.
Molecule CCc1ccccc1NC(=O)Cn1c(N)nc(C(C)C)cc1=O has an RP-LC retention time of 638 s.
CCC(C)N1CCN(C(=O)CCc2ccc3c(c2)CN(C(=O)C2CC2)CCO3)CC1 (centres undefined) gave an RP-LC retention time of 598 s.
With COc1cc(CN2CC(F)(F)C[C@H]2c2nnc(C3CC3)o2)ccc1F the RP-LC retention time was 931 s.
CCCn1cc(C(=O)NC(C)c2ccc(OC)cc2)c2cccnc21 (centres undefined) gave an RP-LC retention time of 869 s.
O=C(NCc1cccnc1)C1CCN(S(=O)(=O)c2ccc(-c3noc(C4CC4)n3)cc2)CC1 gave an RP-LC retention time of 659 s.
In the case of Cc1cc2nn(CC(=O)Nc3ccc(Cl)cc3)c(=O)n2c(N2CCCC2)n1, the RP-LC retention time is reported as 802 s.
COc1ccc(CNC(=O)c2nc3cccnc3n(C)c2=O)cc1 showed an RP-LC retention time of 742 s.
CC(=O)c1ccc(Nc2c(C(=O)N3CCCC3)cnc3nc(C)ccc23)cc1 showed an RP-LC retention time of 584 s.
In the case of CCOc1cccc(CN2C[C@@H]3C(=O)N(CCCN4CCCC4=O)C(=O)[C@@H]3C2)c1, the RP-LC retention time is reported as 617 s.
In the case of O=C(Nc1ccc(C2(C(=O)N3CCN(c4ccccn4)CC3)CCC2)cc1)C1CC1, the RP-LC retention time is reported as 614 s.
With COCCC(=O)Nc1ccc2c(c1)CCC(=O)N2C the RP-LC retention time was 609 s.
With O=C(NC1CCCC1)C1CCCN(C(=O)c2ccc(F)c(F)c2)C1 (centres undefined) the RP-LC retention time was 763 s.
